From publication PMC3115021, “Dynamics of Cdk1 Substrate Specificity during the Cell Cycle” (Molecular Cell, 2011)

Columns and labels:
Clb4-Cdk1 = molecular target: T1, Clb4-Cdk1 (Saccharomyces cerevisiae, UniProt P00546+P24871); experiment: Peptide kinetics with the model substrate (data not shown); type: biochemical
T1 construct: made in house
Method: (§1) The four major cyclin-Cdk1 complexes used in our experiments seem sufficient for describing
(§2) the general dynamic changes of Cdk1 specificity during the cell cycle, as the rest of the cyclins,
(§3) Clb1 and Clb4 (Grandin and Reed, 1993) as well as Cln3 and Clb6 (Cross et al., 2002; Tyers et
(§4) al., 1993) are less abundant and therefore minor contributors to the total concentration of
(§5) activated Cdk1, and most likely would not yield significant changes to the general model. In
(§6) an intermediate KM (210 μM) for the model substrate (data not shown). However, due to poor
(§7) purification yields, this kinase was excluded from detailed analysis. Additionally, the other G1
(§8) towards the peptide substrate (KM > 1 mM, data not shown).
(§9) Our findings have raised an intriguing question of how cyclins can change the specificity
(§10) of the Cdk1 active site, so that its ability to bind and phosphorylate the consensus site motif is
(§11) altered. These cyclin-specific effects could be due to specific conformational changes induced by
(§12) cyclin in the Cdk1 molecule, resulting in altered accessibility and configuration of its active site.
(§13) of Swe1 to phosphorylate different cyclin-Cdk1 complexes at the active site-gating Y19 residue.
(§14) The other gradually changing feature, the relative differences in RXL-dependent docking
(§15) mechanisms among the B-type cyclin-Cdk1s, could also be due to different specific […]

Cln1-Cdk1 = Cln1-Cdk1 (Saccharomyces cerevisiae, UniProt P00546+P20437); experiment: as above; type: biochemical
Method: as §1, §2, §3, §4, §5, §6, §7, §8, §9, §10, §11, §12, §13, §14, §15

Clb2-Cdk1 = molecular target: T2, Clb2-Cdk1 (Saccharomyces cerevisiae, UniProt P00546+P24869); details: higher specificity for mitotic Clb2-Cdk1 than S phase Clb5-Cdk1; ref Loog and Morgan, 2005; cited from earlier work
T2 construct: We purified the four cyclin-Cdk1 complexes from yeast; made in house; host or cells: S. cerevisiae strain DOM0077 (gal-CLB2-TAP, sic1 deleted); Cks1 from bacteria
Text: To study how different cyclins modulate the substrate specificity of Cdk1, we performed a quantitative analysis of yeast Cdk1 specificity in complex with each of four cyclins: the G1/S cyclin Cln2, the S phase triggering cyclin Clb5, the G2/M cyclin Clb3, and the mitotic cyclin Clb2. The cellular levels of these four cyclins peak in sequence over the course of the cell cycle (Figure 1A). We purified the four cyclin-Cdk1 complexes from yeast (Figure 1D) and analyzed their kinetic properties with a commonly used optimal model substrate for Cdk1, a peptide derived from the general substrate Histo ...

T2 sequence (P00546 2-298 limits assumed): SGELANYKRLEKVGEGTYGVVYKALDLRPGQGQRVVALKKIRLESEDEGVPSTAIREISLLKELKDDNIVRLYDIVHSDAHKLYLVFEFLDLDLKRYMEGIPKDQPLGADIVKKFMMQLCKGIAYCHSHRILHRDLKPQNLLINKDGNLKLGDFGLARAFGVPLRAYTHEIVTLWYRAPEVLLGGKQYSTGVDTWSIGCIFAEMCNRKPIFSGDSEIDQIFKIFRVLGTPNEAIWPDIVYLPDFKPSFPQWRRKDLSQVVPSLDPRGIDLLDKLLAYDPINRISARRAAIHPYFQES
T2 sequence (P24869 2-491 partner limits assumed): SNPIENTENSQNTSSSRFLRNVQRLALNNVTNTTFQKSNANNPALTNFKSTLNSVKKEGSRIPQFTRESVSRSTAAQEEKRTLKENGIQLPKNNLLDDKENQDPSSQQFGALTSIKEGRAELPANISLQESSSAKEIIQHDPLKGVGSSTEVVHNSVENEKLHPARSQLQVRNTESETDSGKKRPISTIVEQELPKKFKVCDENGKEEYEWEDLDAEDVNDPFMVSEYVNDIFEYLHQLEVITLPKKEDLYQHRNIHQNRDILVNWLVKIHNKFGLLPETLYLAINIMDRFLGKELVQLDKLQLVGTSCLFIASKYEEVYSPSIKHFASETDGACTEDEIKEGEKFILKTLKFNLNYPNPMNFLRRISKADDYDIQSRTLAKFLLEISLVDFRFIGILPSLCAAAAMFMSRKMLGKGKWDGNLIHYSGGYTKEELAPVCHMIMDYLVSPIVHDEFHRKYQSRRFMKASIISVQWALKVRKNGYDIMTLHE
T2 sequence (P20486 whole entry partner): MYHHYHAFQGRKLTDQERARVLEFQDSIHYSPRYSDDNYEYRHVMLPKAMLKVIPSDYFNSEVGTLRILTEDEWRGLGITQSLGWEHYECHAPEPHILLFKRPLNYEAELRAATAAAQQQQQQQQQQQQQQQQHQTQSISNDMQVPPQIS
T1 sequence (P00546 2-298 limits assumed): as the sequence (P00546 2-298 limits assumed) above
T1 sequence (P24871 whole entry partner): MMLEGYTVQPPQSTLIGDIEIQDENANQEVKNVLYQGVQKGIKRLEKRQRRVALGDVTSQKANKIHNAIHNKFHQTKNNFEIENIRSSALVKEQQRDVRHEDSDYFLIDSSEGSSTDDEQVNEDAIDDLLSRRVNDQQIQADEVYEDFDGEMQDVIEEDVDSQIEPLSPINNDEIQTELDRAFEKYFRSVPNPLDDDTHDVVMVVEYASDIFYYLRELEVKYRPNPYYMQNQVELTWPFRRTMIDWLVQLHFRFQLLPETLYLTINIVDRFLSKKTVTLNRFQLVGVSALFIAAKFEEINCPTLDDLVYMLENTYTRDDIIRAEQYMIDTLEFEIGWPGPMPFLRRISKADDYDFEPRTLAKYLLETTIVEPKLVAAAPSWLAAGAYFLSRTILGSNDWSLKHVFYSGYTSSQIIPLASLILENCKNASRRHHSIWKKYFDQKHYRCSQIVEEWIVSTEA
T1 sequence (P20486 whole entry partner): as the sequence (P20486 whole entry partner) above
Sequence of Cln1-Cdk1 (P00546 2-298 limits assumed): as the sequence (P00546 2-298 limits assumed) above
Sequence of Cln1-Cdk1 (P20437 whole entry partner): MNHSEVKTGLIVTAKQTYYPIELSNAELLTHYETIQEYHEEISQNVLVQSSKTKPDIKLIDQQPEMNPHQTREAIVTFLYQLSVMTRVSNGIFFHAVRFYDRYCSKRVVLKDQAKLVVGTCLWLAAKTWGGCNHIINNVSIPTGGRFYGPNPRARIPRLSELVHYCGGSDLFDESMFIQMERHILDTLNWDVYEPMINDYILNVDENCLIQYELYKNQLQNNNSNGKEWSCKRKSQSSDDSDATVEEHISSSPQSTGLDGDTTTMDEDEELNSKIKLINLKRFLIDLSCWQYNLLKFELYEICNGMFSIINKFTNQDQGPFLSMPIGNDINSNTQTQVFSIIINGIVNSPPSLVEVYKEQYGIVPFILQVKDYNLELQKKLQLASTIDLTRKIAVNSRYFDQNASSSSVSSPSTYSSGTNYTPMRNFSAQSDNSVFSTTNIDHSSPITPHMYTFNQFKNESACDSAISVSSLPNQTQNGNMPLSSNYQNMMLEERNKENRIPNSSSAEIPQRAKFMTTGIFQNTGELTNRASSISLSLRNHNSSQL
Sequence of Cln1-Cdk1 (P20486 whole entry partner): as the sequence (P20486 whole entry partner) above

PKTPKKAKKL [optimal model substrate for Cdk1, a peptide derived from the general substrate Histone H1]
Km (Clb4-Cdk1): 210 µM
Km (Cln1-Cdk1): > 1000 µM
specificity for Clb2-Cdk1 as compared with Clb5-Cdk1 (Clb2-Cdk1): about 20 fold
